Legend:
Experiment in all cases: Bliss excess, mean over the matrix (fraction); higher = more synergy
[1] = test system: SCC-9 (Oral Cavity Carcinoma)
How it was run: (§1)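 Bliss excess equals the observed combination effect minus the expected value EA + EB − EA·EB, where EA and EB are the effects of each agent alone. Combination Emax is the second-highest inhibition within the matrix. Inhibition was scaled from CellTiter-Glo 2.0 luminescence, with 0 set by vehicle wells and 1 by blank wells, after 72 hours of two-drug dosing of cells plated in 1536-well plates.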

[2] = test system: OVISE (Ovarian Carcinoma)
How it was run: as §1

[3] = test system: NCI-H2405 (Lung Adenocarcinoma)
How it was run: as §1

[4] = test system: BT-20 (Breast Carcinoma)
How it was run: as §1

[5] = test system: DG-75 (Burkitt's Lymphoma)
How it was run: as §1

[6] = test system: PF-382 (T-Lymphoblastic Leukemia)
How it was run: as §1

[7] = test system: NH-12 (Neuroblastoma)
How it was run: as §1

[8] = test system: HuP-T3 (Pancreatic Carcinoma)
How it was run: as §1

[9] = test system: NCI-H513 (Other Solid Carcinomas)
How it was run: as §1

[10] = test system: EMC-BAC-2 (Non-Small Cell Lung Carcinoma)
How it was run: as §1

[11] = test system: OCUB-M (Breast Carcinoma)
How it was run: as §1

[12] = test system: RPMI-7951 (Melanoma)
How it was run: as §1

[13] = test system: LOU-NH91 (Squamous Cell Lung Carcinoma)
How it was run: as §1

[14] = test system: TGBC11TKB (Gastric Carcinoma)
How it was run: as §1

[15] = test system: KLE (Endometrial Carcinoma)
How it was run: as §1

[16] = test system: NB7 (Neuroblastoma)
How it was run: as §1

[17] = test system: JHH-7 (Hepatocellular Carcinoma)
How it was run: as §1

[18] = test system: HSC-2 (Oral Cavity Carcinoma)
How it was run: as §1

[19] = test system: OCUM-1 (Gastric Carcinoma)
How it was run: as §1

[20] = test system: NCI-H2347 (Lung Adenocarcinoma)
How it was run: as §1

Row | SMILES | Bliss excess [1] | Bliss excess [2] | Bliss excess [3] | Bliss excess [4] | Bliss excess [5] | Bliss excess [6] | Bliss excess [7] | Bliss excess [8] | Bliss excess [9] | Bliss excess [10] | Bliss excess [11] | Bliss excess [12] | Bliss excess [13] | Bliss excess [14] | Bliss excess [15] | Bliss excess [16] | Bliss excess [17] | Bliss excess [18] | Bliss excess [19] | Bliss excess [20]
1 | COc1cccc(OCCCN)c1-c1cc(Nc2cnc(C#N)cn2)n[nH]1 [Prexasertib] + C=CCn1c(=O)c2cnc(Nc3ccc(N4CCN(C)CC4)cc3)nc2n1-c1cccc(C(C)(C)O)n1 [AZD1775] (first compound max 1 µM, partner max 1 µM) | 0.0249 | 0.0144 | 0.032 | 0.0725 | 0.0708 | -0.0038 | 0.047 | 0.0054 | 0.0545 | 0.0413 | 0.232 | 0.0723 | 0.0332 | 0.0431 | 0.112 | 0.0708 | 0.107 | 0.178 | 0.0518 | -0.0548
2 | CN(C)CCCOc1ccc(-c2ccc3ncc4c(c3c2)n(C2CCOCC2)c(=O)n4C)cn1 [AZD0156] + C[C@@H]1COCCN1C2=NC(=NC(=C2)C3(CC3)[S@](=N)(=O)C)C4=C5C=CNC5=NC=C4 [AZD6738] (first compound max 1 µM, 7x7, partner max 10 µM) | -0.0424 | 0.0317 | -0.0027 | 0.0152 | 0.0645 | 0.0357 | -0.0215 | 0.0181 | 0.0235 | 0.0272 | -0.026 | 0.0468 | -0.0001 | 0.0055 | -0.0567 | 0.0348 | 0.0082 | 0.0867 | 0.0437 | -0.049
3 | CN(C)CCCOc1ccc(-c2ccc3ncc4c(c3c2)n(C2CCOCC2)c(=O)n4C)cn1 [AZD0156] + O=C(c1cc(Cc2n[nH]c(=O)c3ccccc23)ccc1F)N1CCN(C(=O)C2CC2)CC1 [Olaparib] (first compound max 3 µM, partner max 3 µM) | 0.0741 | -0.0084 | -0.0471 | 0.0209 | 0.0614 | 0.102 | -0.0131 | -0.0247 | -0.0347 | 0.147 | -0.0091 | 0.0588 | -0.0153 | -0.0984 | -0.0506 | 0.115 | 0.117 | 0.156 | -0.0199 | -0.0089
4 | CCN(CCO)CCCOc1ccc2c(Nc3cc(CC(=O)Nc4cccc(F)c4)[nH]n3)ncnc2c1 [AZD2811] + C[C@@H]1COCCN1C2=NC(=NC(=C2)C3(CC3)[S@](=N)(=O)C)C4=C5C=CNC5=NC=C4 [AZD6738] (first compound max 1 µM, 7x7, partner max 10 µM) | -0.0594 | -0.0542 | -0.0526 | -0.0356 | -0.0611 | -0.089 | 0.0347 | -0.067 | -0.0145 | -0.0939 | -0.107 | -0.0291 | -0.0583 | -0.0091 | -0.0262 | 0.0084 | -0.048 | -0.0424 | -0.0188 | -0.0319
5 | CC(=O)c1c(C)c2cnc(Nc3ccc(N4CCNCC4)cn3)nc2n(C2CCCC2)c1=O [Palbociclib] + Cc1c2c(nn1C)CSCc1cc(n(C)n1)CSc1cc(c3ccccc3c1)OCCCc1c(C(=O)O)n(C)c3c-2c(Cl)ccc13 [AZD5991] (first compound max 10 µM, 7x7, partner max 1 µM) | -0.0368 | -0.0286 | -0.0149 | -0.0834 | 0.0332 | -0.0193 | 0.0045 | -0.072 | -0.0484 | -0.0991 | -0.0004 | -0.0742 | -0.0901 | -0.0473 | -0.082 | 0.054 | -0.0346 | -0.0997 | -0.0315 | -0.0677
6 | Cc1cc2ncnn2cc1Nc1ncc2c(n1)n(C1CCOCC1)c(=O)n2C [AZD7648] + C=CCn1c(=O)c2cnc(Nc3ccc(N4CCN(C)CC4)cc3)nc2n1-c1cccc(C(C)(C)O)n1 [AZD1775] (first compound max 10 µM, partner max 1 µM) | 0.0332 | -0.0043 | -0.0064 | -0.0186 | -0.0652 | -0.0029 | 0.0005 | -0.0189 | 0.0054 | 0.0058 | 0.0389 | -0.039 | 0.012 | -0.0551 | 0.0159 | -0.011 | -0.0337 | 0.0566 | -0.0244 | -0.0279
7 | CN(CCO)CC[C@H](CSc1ccccc1)Nc1ccc(S(=O)(=O)NC(=O)c2ccc(N3CCC([C@@H](O)c4ccccc4-c4ccc(Cl)cc4)CC3)cc2)cc1S(=O)(=O)C(F)(F)F [AZD4320] + C1CN(CCC1(C(=O)N[C@@H](CCO)C2=CC=C(C=C2)Cl)N)C3=NC=NC4=C3C=CN4 [Capivasertib] (first compound max 1 µM, 7x7, partner max 3 µM) | -0.0761 | -0.0459 | -0.0513 | 0.0427 | -0.0093 | 0.0458 | -0.0589 | -0.0678 | -0.0501 | -0.0761 | -0.0174 | 0.0055 | -0.067 | -0.0398 | -0.0467 | -0.0403 | -0.0256 | -0.0379 | -0.0087 | -0.0533
8 | COc1nnc2ccc(N3CCC(c4ccc(OCCN5CCN(C)C(=O)[C@H]5C)cc4)CC3)nn12 [AZD5153] + C[C@@H]1COCCN1C2=NC(=NC(=C2)C3(CC3)[S@](=N)(=O)C)C4=C5C=CNC5=NC=C4 [AZD6738] (first compound max 1 µM, 7x7, partner max 10 µM) | 0.0394 | -0.0213 | 0.0638 | -0.0267 | -0.0203 | 0.0239 | -0.0381 | -0.0119 | 0.0117 | 0.0722 | 0.0415 | 0.0423 | -0.0012 | -0.046 | -0.0287 | -0.0111 | 0.04 | -0.0039 | 0.0413 | 0.0599
9 | CN(CCO)CC[C@H](CSc1ccccc1)Nc1ccc(S(=O)(=O)NC(=O)c2ccc(N3CCC([C@@H](O)c4ccccc4-c4ccc(Cl)cc4)CC3)cc2)cc1S(=O)(=O)C(F)(F)F [AZD4320] + C[C@@H]1COCCN1C2=NC(=NC(=C2)C3(CC3)[S@](=N)(=O)C)C4=C5C=CNC5=NC=C4 [AZD6738] (first compound max 1 µM, 7x7, partner max 10 µM) | -0.0587 | -0.0206 | -0.0448 | 0.0778 | -0.0217 | -0.0126 | -0.0795 | -0.0695 | -0.0586 | -0.0695 | 0.0055 | -0.0137 | 0.0126 | 0.0135 | -0.0709 | -0.0181 | 0.0174 | 0.0594 | -0.0134 | -0.0256
10 | NC1(C(=O)N[C@@H](CCO)c2ccc(Cl)cc2)CCN(c2ncnc3[nH]ccc23)CC1 [Capivasertib] + CC(C)n1c(=O)n(C)c2cnc3cc(F)c(-c4ccc(OCCCN5CCCCC5)nc4)cc3c21 [AZD1390] (first compound max 10 µM, 7x7, partner max 0.3 µM) | -0.027 | -0.042 | -0.0513 | -0.0315 | -0.0006 | -0.0211 | -0.134 | -0.0444 | -0.0506 | -0.0761 | -0.0424 | -0.0748 | -0.0997 | -0.0598 | -0.0455 | 0.0125 | -0.0584 | -0.0117 | -0.039 | -0.0524
11 | CCc1c2c(nc3ccc(O)cc13)-c1cc3c(c(=O)n1C2)COC(=O)[C@]3(O)CC [SN-38] + CN(C)CCCOc1ccc(-c2ccc3ncc4c(c3c2)n(C2CCOCC2)c(=O)n4C)cn1 [AZD0156] (first compound max 0.3 µM, 7x7, partner max 1 µM) | 0.0484 | -0.0355 | -0.0082 | 0.0684 | 0.0751 | 0.0739 | -0.0954 | 0.0438 | 0.0021 | 0.0414 | 0.126 | 0.0647 | 0.011 | 0.0074 | -0.0034 | -0.0027 | 0.0084 | 0.0085 | -0.0395 | -0.0118
12 | COc1cccc2c1C(=O)c1c(O)c3c(c(O)c1C2=O)C[C@@](O)(C(=O)CO)C[C@@H]3O[C@H]1C[C@H](N)[C@H](O)[C@H](C)O1 [Doxorubicin] + Cc1cc2ncnn2cc1Nc1ncc2c(n1)n(C1CCOCC1)c(=O)n2C [AZD7648] (first compound max 1 µM, 7x7, partner max 10 µM) | -0.0027 | 0.0341 | -0.0042 | 0.0371 | 0.0787 | 0.109 | 0.0953 | 0.0022 | 0.0341 | 0.0828 | 0.0696 | 0.0709 | 0.0236 | -0.0146 | -0.002 | 0.0742 | 0.0271 | 0.0891 | 0.0162 | -0.0486
13 | Cn1cnc2c(F)c(Nc3ccc(Br)cc3Cl)c(C(=O)NOCCO)cc21 [Selumetinib] + C[C@@H]1COCCN1C2=NC(=NC(=C2)C3(CC3)[S@](=N)(=O)C)C4=C5C=CNC5=NC=C4 [AZD6738] (first compound max 10 µM, 7x7, partner max 10 µM) | -0.0302 | -0.0405 | 0.0971 | 0.0733 | -0.0328 | -0.0047 | 0.0315 | 0.048 | 0.0555 | 0.0202 | -0.0604 | 0.0239 | 0.0302 | 0.0232 | 0.01 | -0.0257 | -0.0073 | -0.0553 | -0.0359 | 0.0844
14 | C=CCn1c(=O)c2cnc(Nc3ccc(N4CCN(C)CC4)cc3)nc2n1-c1cccc(C(C)(C)O)n1 [AZD1775] + C[C@@H]1COCCN1C2=NC(=NC(=C2)C3(CC3)[S@](=N)(=O)C)C4=C5C=CNC5=NC=C4 [AZD6738] (first compound max 1 µM, partner max 10 µM) | -0.0425 | -0.0399 | -0.0039 | 0.0448 | 0.0482 | -0.0022 | 0.0262 | 0.0338 | -0.0058 | 0.0125 | 0.0642 | 0.0368 | -0.0111 | 0.0431 | -0.0361 | -0.025 | 0.0273 | 0.0675 | -0.0391 | 0.0438

Source: the supplement of paper PMC11061612
